Test results published in the supplement of paper PMC10307832.

Tests used:
IMD-0354 = compound: O=C(Nc1cc(C(F)(F)F)cc(C(F)(F)F)c1)c1cc(Cl)ccc1O [IMD-0354]; assay: relative viability (nuclei count vs DMSO), 5 days (fraction); higher = more cells survive
How it was run: (§1)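 Lung cancer cell lines in 1536-well plates were kept overnight at 37 °C, then pinned with five library-drug doses (not always all listed) spaced by √10 on vehicle-anchored plates. After 5 days without medium change, cells were fixed, permeabilised and Hoechst-stained in one step, imaged at 4×, and nuclei were counted with MetaXpress. Viability is treated-well nuclei divided by vehicle-well nuclei, taken as the median over plates. Plates passed only with control CV below 25% and at least one doubling.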

CX-5461 = compound: Cc1cnc(CNC(=O)c2c(=O)c3ccc(N4CCCN(C)CC4)nc3n3c2sc2ccccc23)cn1 [CX-5461]; assay: as above
How it was run: as §1

| Cell Line | relative viability (IMD-0354; 0.04 µM) | relative viability (IMD-0354; 0.1265 µM) | relative viability (IMD-0354; 0.4 µM) | relative viability (IMD-0354; 1.265 µM) | relative viability (IMD-0354; 4 µM) | relative viability (CX-5461; 0.01 µM) | relative viability (CX-5461; 0.03162 µM) | relative viability (CX-5461; 0.1 µM) | relative viability (CX-5461; 0.3162 µM) | relative viability (CX-5461; 1 µM) |
| --- | --- | --- | --- | --- | --- | --- | --- | --- | --- | --- |
| 201T | 1.1 | 1.15 | 0.563 | 0.725 | 0.324 | 0.985 | 1 | 0.986 | 0.985 | 0.936 |
| A549 | 1.11 | 0.991 | 0.496 | 0.229 | 0.109 | 0.969 | 0.96 | 0.748 | 0.811 | 0.193 |
| A-427 | 1.26 | 1.01 | 0.434 | 0.153 | 0.134 | 1.06 | 1.1 | 1.06 | – | 0.748 |
| ABC-1 | 1.07 | 1.05 | 0.498 | 0.222 | 0.259 | 1.04 | 0.785 | 0.712 | 0.309 | 0.568 |
| BEN | 1.22 | 0.903 | 0.64 | 0.463 | 0.277 | 1.04 | 1 | 1.06 | 0.979 | 0.937 |
| CAL-12T | 1.07 | 0.922 | 0.545 | 0.251 | 0.162 | 1.02 | 0.994 | 0.947 | 0.936 | 0.662 |
| COR-L23 | 0.922 | 1 | 0.422 | 0.13 | 0.14 | 1.03 | 1.07 | 0.758 | 0.973 | 0.583 |
| COR-L 105 | 1.05 | 0.832 | 0.738 | 0.463 | 0.293 | 0.933 | 0.894 | 0.82 | 0.607 | 0.508 |
| Calu-6 | 0.947 | 0.913 | 0.648 | 0.181 | 0.125 | 1.08 | 1.07 | 1.03 | 0.987 | 0.385 |
| ChaGo-K-1 | 1.12 | 1.08 | 0.751 | 0.339 | 0.267 | 1.02 | 0.967 | 1.04 | 0.571 | 0.552 |
| EBC-1 | 0.914 | 0.971 | 0.585 | 0.304 | 0.205 | 1.01 | 1.05 | 1.08 | 0.907 | 0.782 |
| EKVX | 1 | 0.972 | 0.589 | 0.915 | 0.358 | 1.11 | 1.05 | 1.05 | 0.677 | 0.915 |
| EMC-BAC-2 | 1.02 | 0.962 | 0.675 | 0.425 | 0.383 | 0.962 | 0.909 | 0.769 | 0.818 | 0.488 |
| EPLC-272H | 1.21 | 1.08 | 0.717 | 0.442 | 0.16 | 0.994 | 0.886 | 0.901 | – | 0.922 |
| H3255 | 0.911 | 1.01 | 0.621 | 0.601 | 0.362 | 1.02 | 0.94 | 0.921 | 0.609 | 0.909 |
| HARA | 1.17 | 0.88 | 0.537 | 0.154 | 0.205 | 1.01 | 1.03 | 0.957 | 0.728 | 0.713 |
| HCC-15 | 0.949 | 0.935 | 0.663 | 0.16 | 0.15 | 1.01 | 1.08 | 0.978 | 0.833 | 0.689 |
| HCC-44 | 0.967 | 1.03 | 0.497 | 0.301 | 0.194 | 0.956 | 0.998 | 0.964 | 0.98 | 0.839 |
| HCC-78 | 0.988 | 0.989 | 0.579 | 0.586 | 0.487 | 1.01 | 0.879 | 0.941 | 0.907 | 0.902 |
| HCC-366 | 1.04 | 1.09 | 0.543 | 0.111 | 0.0465 | 1.11 | 1.02 | 1 | 1.02 | 0.322 |
| HCC-827 | 1.06 | 1.05 | 0.736 | 0.439 | 0.258 | 1.02 | 1.02 | 1.03 | 1.01 | 0.933 |
| HOP-62 | 1.03 | 1.08 | 0.639 | 0.38 | 0.13 | 1.02 | 1.05 | 1.08 | 0.893 | 0.899 |
| IA-LM | 0.791 | 0.875 | 0.529 | 0.389 | 0.128 | 0.987 | 0.933 | 1 | 1.03 | 0.561 |
| LC-2-ad | 0.948 | 0.976 | 0.579 | 0.193 | 0.17 | 0.981 | 1.02 | 0.955 | 0.978 | 0.749 |
| LCLC-97TM1 | 0.97 | 0.938 | 0.639 | 0.384 | 0.128 | 0.881 | 1.14 | 0.992 | – | 0.746 |
| LCLC-103H | 1.02 | 1.01 | 0.653 | 0.457 | 0.331 | 1.02 | 1.05 | 0.969 | 0.944 | 0.969 |

| Cell Line | relative viability (IMD-0354; 0.04 µM) | relative viability (IMD-0354; 0.1265 µM) | relative viability (IMD-0354; 0.4 µM) | relative viability (IMD-0354; 1.265 µM) | relative viability (IMD-0354; 4 µM) | relative viability (CX-5461; 0.01 µM) | relative viability (CX-5461; 0.03162 µM) | relative viability (CX-5461; 0.1 µM) | relative viability (CX-5461; 0.3162 µM) | relative viability (CX-5461; 1 µM) |
| --- | --- | --- | --- | --- | --- | --- | --- | --- | --- | --- |
| LK-2 | 1.19 | 0.986 | – | 1 | 0.271 | 0.89 | 1.07 | 1.13 | – | 0.783 |
| LOU-NH91 | 1.1 | 1 | 0.353 | 0.252 | 0.273 | 1.07 | 1.01 | 0.997 | 0.574 | 0.845 |
| LU99A | 0.726 | 0.95 | 0.788 | 0.326 | 0.236 | 0.974 | 0.95 | 1.23 | 0.603 | 0.356 |
| LXF-289 | 1.02 | 1.05 | 0.86 | 0.337 | 0.207 | 0.988 | 1.01 | 1.06 | 0.87 | 0.745 |
| NCI-H23 | 1.14 | 0.942 | 0.518 | 0.195 | 0.2 | 1.05 | 1.04 | 0.856 | 0.773 | 0.544 |
| NCI-H322M | 0.992 | 1.09 | 0.805 | 0.406 | 0.331 | 0.923 | 0.987 | 1.03 | 0.491 | 0.731 |
| NCI-H358 | 1.01 | 1 | 0.557 | 0.232 | 0.274 | 0.971 | 1.02 | 0.872 | 0.871 | 0.633 |
| NCI-H441 | 1.13 | 0.966 | 0.521 | 0.227 | 0.243 | 1.08 | 1.17 | 0.947 | 0.888 | 0.689 |
| NCI-H460 | 1.02 | 1.01 | 0.379 | 0.106 | 0.0241 | 1.05 | 0.97 | 0.725 | 0.93 | 0.128 |
| NCI-H520 | 1.05 | 0.93 | 0.545 | 0.589 | 0.226 | 1.14 | 1.02 | 1.09 | 0.666 | 0.578 |
| NCI-H522 | 0.934 | 0.848 | 0.909 | 0.7 | 0.406 | 0.98 | 0.944 | 0.946 | – | 0.951 |
| NCI-H596 | 0.989 | 1.16 | 0.799 | 0.834 | 0.426 | 0.989 | 1.15 | 0.968 | 1.09 | 0.683 |
| NCI-H647 | 1.04 | 1.06 | 0.405 | 0.172 | 0.11 | 1.08 | 0.935 | 0.991 | 0.822 | 0.403 |
| NCI-H650 | 1.13 | 0.954 | 0.594 | 0.555 | 0.214 | 0.919 | 1.02 | 0.788 | 0.879 | 0.768 |
| NCI-H661 | 0.999 | 0.955 | 0.646 | 0.291 | 0.305 | 1.04 | 0.978 | 1.02 | 0.626 | 0.835 |
| NCI-H727 | 0.838 | 0.908 | 0.732 | 0.494 | 0.509 | 1.07 | 1.03 | 1.03 | 0.875 | 0.78 |
| NCI-H838 | 0.977 | 0.954 | 0.565 | 0.432 | 0.27 | 0.983 | 1 | 0.992 | 0.78 | 0.806 |
| NCI-H1299 | 0.85 | 1.02 | 0.638 | 0.221 | 0.179 | 0.998 | 0.99 | 1.02 | 1.01 | 0.944 |
| NCI-H1355 | 1.12 | 0.946 | 0.716 | 0.368 | 0.221 | 1.03 | 1.06 | 0.96 | 0.521 | 0.671 |
| NCI-H1395 | 1.15 | 0.989 | 0.823 | 0.324 | 0.296 | 0.978 | 0.853 | 0.816 | 0.475 | 0.588 |
| NCI-H1437 | 1.12 | 0.941 | 0.626 | 0.32 | 0.244 | 1.03 | 0.97 | 0.894 | 1.03 | 0.877 |
| NCI-H1563 | 0.979 | 0.974 | 0.856 | 0.472 | 0.402 | 0.963 | 0.954 | 0.806 | 0.939 | 0.64 |
| NCI-H1623 | 0.962 | 1 | 1.02 | 0.992 | 0.451 | 1.18 | 0.979 | 0.904 | 0.674 | 0.94 |
| NCI-H1648 | 0.588 | 0.686 | 0.685 | 0.814 | 0.365 | 0.614 | 0.952 | 0.674 | 0.742 | 0.851 |
| NCI-H1650 | 0.96 | 0.771 | 0.616 | 0.252 | 0.174 | 0.965 | 0.948 | 0.406 | 0.794 | 0.205 |
| NCI-H1651 | 1.04 | 0.983 | 0.577 | 0.402 | 0.139 | 0.956 | 0.871 | 0.57 | 0.959 | 0.371 |
